Assay [1] deals with T1, Cbl-b (Homo sapiens, UniProt Q13191). Nature of the assay: Cbl-b inhibition assay (Cbl-b activity assay, FRET, Biological Example 1; 100 mM NaCl, 60 nM Src kinase). In kind it is biochemical. The conditions noted are these: upper bound stated in text lists; read-out: IC50 values in the Cbl-b inhibition assay of Biological Example 1. In a few lines: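 Inhibitor activity is measured as reduced terbium-to-fluorescein FRET between streptavidin-terbium on biotinylated Cbl-b and Bodipy-fluorescein ubiquitin carried by an irreversible UbcH5B-Ub conjugate, binding of which depends on Src phosphorylation of Cbl-b.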
T1 sequence (Q13191 36-427): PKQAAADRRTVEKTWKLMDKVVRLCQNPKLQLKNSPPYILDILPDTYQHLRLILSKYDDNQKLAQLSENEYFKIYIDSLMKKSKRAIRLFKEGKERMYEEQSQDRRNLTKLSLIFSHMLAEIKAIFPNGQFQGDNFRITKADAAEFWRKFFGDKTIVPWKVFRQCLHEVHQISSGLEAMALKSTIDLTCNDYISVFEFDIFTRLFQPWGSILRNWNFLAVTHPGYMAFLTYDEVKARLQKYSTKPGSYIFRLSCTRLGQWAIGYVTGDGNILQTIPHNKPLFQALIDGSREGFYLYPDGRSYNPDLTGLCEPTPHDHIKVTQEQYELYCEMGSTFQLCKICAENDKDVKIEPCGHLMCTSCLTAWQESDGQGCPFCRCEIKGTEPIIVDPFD

The target in assay [2] is T1, Cbl-b. The experiment in a line: Cbl-b activity assay (Cbl-b inhibition assay), TR-FRET of Cbl-b interaction with UbcH5B-Ub. In kind it is biochemical. The settings on record: assay buffer with 100 mM NaCl, 60 nM Src kinase; read-out: Cbl-b activity IC50. In a few lines:
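TR-FRET readout of Cbl-b binding to Bodipy-fluorescein N-terminally labeled Ub conjugated to UbcH5B C85K, measured with compound present. After compound incubation, 60 nM Src kinase with 1 mM ATP and 5 mM MgCl2 (final) was added for 1.5 h, then a further 1 h incubation; asterisked values used 50 mM NaCl buffer and 30 nM Src.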
(In general: In TR-FRET formats the signal depends on donor and acceptor labels being close together.)

Results on nine molecules are retold here after patent US20220324835A1 (Nurix Therapeutics, Inc., priority 2018, published 2022).

Molecules are shown by their SMILES. Bounds are passed on as bounds.

As for `Cn1cnnc1CC1(c2cccc(N3Cc4c(cc(CN5CCOC6(CC6)C5)cc4C(F)(F)F)C3=O)c2)COC1` [Example 666, 6-((4-oxa-7-azaspiro[2.5]octan-7-yl)methyl)-2-(3-(3-((4-methyl-4H-1,2,4-triazol-3-yl)methyl)oxetan-3-yl)phenyl)-4-(trifluoromethyl)isoindolin-1-one], the values for the half-inhibitory concentration (IC50) on Cbl-b [1] and at Cbl-b [2] were at most 100 nM and below 100 nM, respectively.

Consider `COC[C@@H]1CN(Cc2cc3c(c(C(F)(F)F)c2)CN(c2cccc(C4(Cc5nncn5C)COC4)c2)C3=O)CCO1` [Example 667, (S)-6-((2-(methoxymethyl)morpholino)methyl)-2-(3-(3-((4-methyl-4H-1,2,4-triazol-3-yl)methyl)oxetan-3-yl)phenyl)-4-(trifluoromethyl)isoindolin-1-one], for which the IC50 at Cbl-b [1] is at most 100 nM; at Cbl-b [2] it was below 100 nM.

Consider `CC(c1cc2c(c(C(F)(F)F)c1)CN(c1cccc(C3(C(F)(F)c4nncn4C)COC3)c1)C2=O)N1CC[C@H](F)C1` (stereo partly drawn) [Example 678, 2-(3-(3-(difluoro(4-methyl-4H-1,2,4-triazol-3-yl)methyl)oxetan-3-yl)phenyl)-6-(l-((S)-3-fluoropyrrolidin-1-yl)ethyl)-4-(trifluoromethyl)isoindolin-1-one], for which the IC50 is at most 100 nM on Cbl-b [1] and below 100 nM at Cbl-b [2].

As to `C[C@H](Cc1nncn1C)c1cc(C2=CCOCC2)nc(N2Cc3c(cccc3C(F)(F)F)C2=O)c1` [Example 685, (R)-2-(6-(3,6-dihydro-2H-pyran-4-yl)-4-(1-(4-methyl-4H-1,2,4-triazol-3-yl)propan-2-yl)pyridin-2-yl)-4-(trifluoromethyl)isoindolin-1-one], the values for the IC50 at Cbl-b [1] and on Cbl-b [2] were at most 1000 nM and 301 to 1000 nM, respectively.

Turning to `CC(c1nncn1C)C1(c2cccc(N3Cc4c(cc(CN5CCC6(CC6)C5)cc4C(F)(F)F)C3=O)c2)COC1` (stereo not drawn) [Example 701, 6-((5-azaspiro[2.4]heptan-5-yl)methyl)-2-(3-(3-(1-(4-methyl-4H-1,2,4-triazol-3-yl)ethyl)oxetan-3-yl)phenyl)-4-(trifluoromethyl)isoindolin-1-one], the figures for the IC50 at Cbl-b [1] and on Cbl-b [2] were at most 1000 nM and 301 to 1000 nM, respectively.

In the case of `Cc1cc(C(=O)Nc2cccc(C3(Cc4nncn4C(F)F)COC3)c2)nc(C2CC2)n1` [Example 704, 2-cyclopropyl-N-(3-(3-((4-(difluoromethyl)-4H-1,2,4-triazol-3-yl)methyl)-oxetan-3-yl)phenyl)-6-methylpyrimidine-4-carboxamide], the IC50 was at most 100 nM at Cbl-b [1] and below 100 nM on Cbl-b [2].

With `Cn1cnnc1CC1(c2cccc(N3Cc4c(cc(CN5CCc6cc(C#N)ccc6C5)cc4C(F)(F)F)C3=O)c2)COC1` [Example 706, 2-((2-(3-(3-((4-methyl-4H-1,2,4-triazol-3-yl)methyl)oxetan-3-yl)phenyl)-3-oxo-7-(trifluoromethyl)isoindolin-5-yl)methyl)-1,2,3,4-tetrahydroisoquinoline-6-carbonitrile], the results for the concentration for half-maximal inhibition (IC50) on Cbl-b [1] and on Cbl-b [2] were at most 100 nM and below 100 nM, respectively.

With `Cn1cnnc1CC1(c2cccc(N3Cc4c(cc(CN5CCO[C@H](C(F)(F)F)C5)cc4C(F)(F)F)C3=O)c2)COC1` [Example 707, (S)-2-(3-(3-((4-methyl-4H-1,2,4-triazol-3-yl)methyl)oxetan-3-yl)phenyl)-4-(trifluoromethyl)-6-((2-(trifluoromethyl)morpholino)methyl)isoindolin-1-one], the concentration for half-maximal inhibition (IC50) on Cbl-b [1] is at most 100 nM; on Cbl-b [2] it was below 100 nM.

As for `Cn1cnnc1CC1(c2cccc(N3Cc4c(cc(CN5CCc6ncccc6C5)cc4C(F)(F)F)C3=O)c2)COC1` [Example 709, 6-((7,8-dihydro-1,6-naphthyridin-6(5H)-yl)methyl)-2-(3-(3-((4-methyl-4H-1,2,4-triazol-3-yl)methyl)oxetan-3-yl)phenyl)-4-(trifluoromethyl)isoindolin-1-one], the figures for the 50% inhibitory concentration (IC50) at Cbl-b [1] and on Cbl-b [2] were at most 100 nM and below 100 nM, respectively.

What is called IC50 is the concentration at which inhibition is half-maximal.
